According to PMC4999056 (European Journal of Medicinal Chemistry, 2016):
Like-named read-outs stand apart in the source and are kept apart here.

Key:
DENV (serotype 2) = assay: microbe, parasite or virus in culture; assay type: cell-based, Dengue virus serotype 2; conditions: for EC50: read-out: Dengue EC50
[1] = tested on: Vero-B cells (ATCCCCL-81)
YFV = assay: microbe, parasite or virus in culture; assay type: cell-based, yellow fever virus; conditions: for EC50: read-out: Yellow fever EC50
in vitro [2] = conditions: chlorocebus aethiops, Yellow fever CC50
in vitro [3] = conditions: chlorocebus aethiops

**Q.** Which results are given for “N^1-(4-fluorophenyl)-N^2-(2-(thiophen-3-yl)benzyl)phthalamide [7i]”?
**A.** Dengue SI (DENV (serotype 2)): 17; EC50 (DENV (serotype 2)): 3 µM; CC50 [1]: 75 µM; Yellow fever SI (YFV): 53; EC50 (YFV): 1.4 µM; CC50 (Vero-B cells (ECACC)): 50 µM

**Q.** With `Cc1ccc(NC(=O)c2ccccc2C(=O)NCc2ccccc2-c2ccsc2)cc1` [7j, N^1-(2-(thiophen-3-yl)benzyl)-N^2-(p-tolyl)phthalamide] as the compound, how does the CC50 at 168 h (in vitro [2]) read?
**A.** 61 µM

**Q.** And the “Dengue SI” value (DENV (serotype 2))?
**A.** 17

**Q.** What about the EC50 (DENV (serotype 2); Dengue virus, Vero B) of the same compound?
**A.** 3 µM

**Q.** What about the “Yellow fever SI” value (YFV) of the same compound?
**A.** 23

**Q.** What about the EC50 (YFV; Yellow fever virus, Vero B) of the same compound?
**A.** 2.6 µM

**Q.** And the CC50 at 168 h (in vitro [3])?
**A.** 50 µM

**Q.** What does the source list for `Cc1ccc(NC(=O)c2nccnc2C(=O)Nc2ccc(C)cc2-c2ccsc2)cc1` [6h, N^2-(4-methyl-2-(thiophen-3-yl)phenyl)-N^3-(p-tolyl)pyrazine-2,3-dicarboxamide]?
**A.** CC50 (in vitro [2]): > 116 µM; Dengue SI (DENV (serotype 2)): >29; EC50 (DENV (serotype 2); Dengue virus, Vero B): 0.5 to 3.4 µM; EC50 (DENV (serotype 2)): < 0.9 µM; Yellow fever SI (YFV): 1; EC50 (YFV; Yellow fever virus, Vero B): > 116 µM; CC50 at 168 h (in vitro [3]): 26 µM

**Q.** Which CC50 (in vitro [2]) does the source give for `Cc1cc(-c2ccccc2NC(=O)c2ccccc2C(=O)Nc2ccc(F)cc2)[nH]n1` [7m, N^1-(4-fluorophenyl)-N^2-(2-(3-methyl-1H-pyrazol-5-yl)phenyl)phthalamide] here?
**A.** > 120 µM

**Q.** What about the “Dengue SI” value (DENV (serotype 2)) of the same compound?
**A.** 1

**Q.** And the EC50 (DENV (serotype 2); Dengue virus, Vero B)?
**A.** > 120 µM

**Q.** And the “Yellow fever SI” value (YFV)?
**A.** >10

**Q.** And the EC50 (YFV; Yellow fever virus, Vero B)?
**A.** 12 µM

**Q.** And the CC50 (in vitro [3])?
**A.** > 120 µM

**Q.** With `Cc1ccc(NC(=O)c2nccnc2C(=O)Nc2ccccc2-c2cc(C)n[nH]2)cc1` [6n, N^2-(2-(3-methyl-1H-pyrazol-5-yl)phenyl)-N^3-(p-tolyl)pyrazine-2,3-di-carboxamide] as the compound, how does the CC50 (in vitro [2]) read?
**A.** > 13.6 µM

**Q.** What about the “Dengue SI” value (DENV (serotype 2)) of the same compound?
**A.** 7

**Q.** What about the “fold reduced DENV inhibitory activity” value (DENV (serotype 2)) of the same compound?
**A.** 7 fold

**Q.** What about the EC50 (DENV (serotype 2); Dengue virus, Vero B) of the same compound?
**A.** 3.4 µM

**Q.** And the “Yellow fever SI” value (YFV)?
**A.** >34

**Q.** What about the EC50 (YFV; Yellow fever virus, Vero B) of the same compound?
**A.** 0.4 µM

**Q.** And the CC50 at 168 h (in vitro [3])?
**A.** 24 µM
